Converted amounts (≈) assume the structure as drawn.
Legend:
Type in all cases: cell-based, human
LXFS 538 = test: Clonogenic assay, colony formation of tumor stem cells from xenografts; settings: Lung, small cell, xenograft LXFS 538, colony formation
MEXF 514L = test: Proliferation inhibition of cancer cells (propidium iodide fluorescence); settings: Melanoma, MEXF 514L cell line
Description: (§1) Using various human cancer cells in vitro, the concentrations of the test compounds (A, B, C, D, E, F), which inhibit the proliferation of cancer cells by 50% (IC50) and 70% (IC70) were determined. Specifically, each cell line of bladder cancer (BXF 1218L and T-24), glioblastoma (CNXF 498NL), colic cancer (HCT-116 and HT-29), gastric cancer (GXF 251 L), head and neck cancer (HNXF 536L), non small cell lung cancer (LXF 1121L, LXF 289L, LXF 526L, LXF 529L, LXF 629L and H-460), mammary cancer (MAXF 401NL, MCF-7, MDA-231 and MDA-468), melanoma (MEXF 276L, MEXF 394NL, MEXF 462NL, MEXF 514L and MEXF 520L), ovary cancer (OVXF 1619L, OVXF 899L and OVCAR-3), pancreatic cancer (PAXF 1657L and PANC-1), prostate cancer (22Rv1, DU-145, LNCaP and PC3M), pleuramesothelioma (PXF 1752L), renal cancer (RXF 1781 L, RXF 393NL, RXF 486L and RXF 944L), and uterine cancer (UXF 1138L) is added to a 96-well microtiter plate at a density of 3.6-11.2x10^3 cells per well in RPMI-1640 medium containing 10% fetal calf serum and 0.1% gentamicin and incubated for 24 hours. After 24 hours RPMI-1640 medium containing 10% fetal calf serum and 0.1% gentamicin, together with a test compound, is added thereto. Then, this plate is incubated at 37°C for 4 days in a humidified atmosphere of air containing 5% CO2. Thereafter, the cell culture medium with or without drug was replaced by 200 µl of an aqueous PI solution (7 µg/ml propidium iodide). Applying a freeze thaw cycle to permeabilize intact cell walls, staining of DNA was achieved, and the fluorescence of each well was measured using the Cy-tofluor 4000 microplate reader (excitation 530 nm, emission 620 nm), giving a direct relationship to the total cell number. Proliferation inhibition is expressed as test versus untreated control (T/C-value [%]). IC50 and IC70 values were determined by plotting compound concentration versus cell viability.

MCF-7 = test: as above; settings: Breast, MCF-7 cell line
Description: as §1

LXFL 529L = test: as above; settings: LXFL 529L cell line
Description: as §1

LXFA 526L = test: as above; settings: Lung, non small cell, LXFA 526L cell line
Description: as §1

PAXF 1657L = test: as above; settings: Pancreas, PAXF 1657L cell line
Description: as §1

MEXF 462NL = test: as above; settings: MEXF 462NL cell line
Description: as §1

MEXF 276L = test: as above; settings: Melanoma, MEXF 276L cell line
Description: as §1

LNCaP = test: as above; settings: Prostate, LNCaP cell line
Description: as §1

RXF 393NL = test: as above; settings: Kidney, RXF 393NL cell line
Description: as §1

UXF 1138L = test: as above; settings: UXF 1138L cell line
Description: as §1

LXFA 629L = test: as above; settings: Lung, non small cell, LXFA 629L cell line
Description: as §1

CNXF 498NL = test: as above; settings: Glioblastoma, CNXF 498NL cell line
Description: as §1

RXF 1781 L = test: as above; settings: Kidney, RXF 1781 L cell line
Description: as §1

C[C@@H]1CC(=O)[C@@H](O)[C@]2(O1)O[C@@H]1CC(=O)O[C@@H]1C1=C2C(=O)c2c(O)cccc2C1=O [Compound B, 4'-dehydro-deacetylgriseusin A]
IC50 (LXFS 538): 0.307 µg/mL (≈ 0.767 µM)
IC70 (LXFS 538): 0.502 µg/mL (≈ 1.25 µM)
IC50 (MEXF 514L): 0.087 µg/mL (≈ 0.217 µM)
IC70 (MEXF 514L): 0.149 µg/mL (≈ 0.372 µM)
IC50 (MCF-7): 0.138 µg/mL (≈ 0.345 µM)
IC70 (MCF-7): 0.210 µg/mL (≈ 0.525 µM)
IC50 value (LXFL 529L; 4 days): 1.068 µg/mL (≈ 2.67 µM)
IC50 (LXFL 529L; Lung, non small cell): 1.068 µg/mL (≈ 2.67 µM)
IC70 (LXFL 529L; Lung, non small cell): 1.814 µg/mL (≈ 4.53 µM)
IC50 (LXFA 526L): 0.129 µg/mL (≈ 0.322 µM)
IC70 (LXFA 526L): 0.206 µg/mL (≈ 0.515 µM)
IC50 (PAXF 1657L): 0.094 µg/mL (≈ 0.235 µM)
IC70 (PAXF 1657L): 0.179 µg/mL (≈ 0.447 µM)
IC50 value (MEXF 462NL; 4 days): 0.086 µg/mL (≈ 0.215 µM)
IC50 (MEXF 462NL; Melanoma): 0.086 µg/mL (≈ 0.215 µM)
IC70 (MEXF 462NL; Melanoma): 0.158 µg/mL (≈ 0.395 µM)
IC50 (MEXF 276L): 0.112 µg/mL (≈ 0.28 µM)
IC70 (MEXF 276L): 0.212 µg/mL (≈ 0.53 µM)
IC50 (LNCaP): 0.107 µg/mL (≈ 0.267 µM)
IC70 (LNCaP): 0.175 µg/mL (≈ 0.437 µM)
IC50 (RXF 393NL): 0.104 µg/mL (≈ 0.26 µM)
IC70 (RXF 393NL): 0.164 µg/mL (≈ 0.41 µM)
IC50 value (UXF 1138L; 4 days): 0.216 µg/mL (≈ 0.54 µM)
IC50 (UXF 1138L; Uterus): 0.216 µg/mL (≈ 0.54 µM)
IC70 (UXF 1138L; Uterus): 0.524 µg/mL (≈ 1.31 µM)
IC50 (LXFA 629L): 0.234 µg/mL (≈ 0.585 µM)
IC70 (LXFA 629L): 0.671 µg/mL (≈ 1.68 µM)
IC50 (CNXF 498NL): 0.107 µg/mL (≈ 0.267 µM)
IC70 (CNXF 498NL): 0.184 µg/mL (≈ 0.46 µM)
IC50 (RXF 1781 L): 0.407 µg/mL (≈ 1.02 µM)
IC70 (RXF 1781 L): 1.134 µg/mL (≈ 2.83 µM)

Source: patent EP1650209A1, “Griseusin derivatives and their use as antitumor agents” (Oncotest GmbH, priority 2004, dated 2006)
